Experimental data reported in patent publication US7504231B2, “Method of alleviating chronic pain via peripheral inhibition of neurotransmitter synthesis” (The Board of Regents of the University of Oklahoma, priority 2001, dated 2009).
“Also recorded” adds a separate entry of the source.

Key:
[1] = test system: CFA induced inflammation of the rat hindpaw (mechanical allodynia); assay: Pressure sensitivity with von Frey hairs (paw pressure withdrawal threshold) in rats with CFA hindpaw inflammation; assay type: in vivo; conditions: for pressure responses after intrathecal inhibitor: injected intrathecally prior to initiation of CFA inflammation, tested 4 days, before ~70 gms, CFA ~10 gms
[2] = test system: CFA induced inflammation of the rat hindpaw (thermal hyperalgesia); assay: Thermal latencies (Hargreaves' model) in rats with CFA hindpaw inflammation; assay type: in vivo
Protocol: (§1) For the experiments described in FIGS. 1-16, adult Sprague Dawley male rats, 200-300 g, were used. One set of normal rats was used to evaluate the effects of fixation on glutaminase immunohistochemical staining and for determining antisera dilutions. For all other rats, at day 0, a limited arthritis was induced in the right hindpaw by the intraplantar subcutaneous injection of 75-150 μl of complete Freund's adjuvant (CFA; Mycobacterium butyricum; Sigma) emulsified in saline (1:1). Controls were naive rats that received no injection or rats that received intraplantar injection of saline (75 μl). For peripheral glutaminase inhibition studies, the inflamed hindpaws were injected with glutaminase inhibitors (25 μl) at day 3 of inflammation. Some rats with inflammation received saline injections (25 μl) into the inflamed hindpaw at day 3. […] Efforts were made to minimize the number of animals used for this study.
Thermal latencies for the footpad plantar surface were determined with the Hargreaves' model (Ugo Basile, Italy). Rats were placed on an elevated glass plate (3 mm) in clear plastic boxes with air holes in the lids and allowed to acclimate for 10 minutes. Radiant heat was applied to the plantar surface of the hindpaw and the withdrawal latency recorded. A second test was followed after 5-10 minutes. All behavioral testing occurred at 21-22° C. with indirect lighting in the testing room. Differences between groups for pressure thresholds and thermal latencies were determined with a Student's t test (p<0.05 for significance) using InStat biological statistics program (GraphPad Software, Inc., San Diego).

[3] = test system: CFA induced inflammation of the rat hindpaw (mechanical allodynia); assay: Pressure sensitivity with von Frey hairs (paw pressure withdrawal threshold) in rats with CFA hindpaw inflammation; assay type: in vivo; conditions: for Paw pressure withdrawal thresholds (PPWT): CFA+saline 5-12 g, control 50-70 g
Protocol: as §1
Two to three days prior to and for the days following CFA injection, rats were tested for pressure sensitivity with von Frey hairs (Semmes-Weinstein monofilaments; Stoelting, Inc.). […] Monofilaments calibrated for specific forces were inserted through the holes underneath the box to probe the plantar surface of the hindpaw, 5 times in 3-4 sec intervals in different places on the plantar surface. Filaments with light force were used first, followed by filaments of increasing force. A filament was slowly applied perpendicularly to the plantar surface until bending of the filament occurred. […] The threshold force was defined as the filament (force) that caused the foot retraction without bending the monofilament three out of five times. Using a conversion table for the filaments, thresholds were reported as gram force.

[4] = test system: GLU-IR fibers in the paw skin; assay: Glutamate immunohistochemistry of hindpaw skin after CFA inflammation; assay type: in vivo, rat; conditions: CFA + inhibitor, skin after 7 days; control very little, CFA+saline many intense fibers
Protocol: (§2) The skin from the hindpaws were also processed for GLU and GT immunohistochemistry after 7 days (FIG. 12). Control rats had very little GLU or GT-immunoreactive (IR) fibers in the paw skin. Skin from CFA+saline rats contained many intense GLU-IR and GT-IR fibers.
(§3) For immunohistochemical localization of GT, rats at 3, 7, and 10 days (n=6 CFA/time pt; n=4 control/time pt; n=3 additional controls) were anesthetized with sodium pentobarbital (90 mg/kg) and transcardially perfused with fixative: 0.2% paraformaldehyde (PFA), […] (PA) in 0.1M phosphate buffer, pH 7.4 [Miller et al, 1993, 2002]. Right and left L4DRG's and hindpaws were removed and placed overnight in fixative at 4° C.; the PFA concentration was increased to 2% for post-fixation [Miller et al, 1993, 2002]. Additional control rats (n=3) were perfused transcardially with 4% PFA in 0.1M Sorenson's phosphate buffer, pH 7.4. DRG's were removed and placed in fixative overnight at 4° C. All tissues were transferred to 20% sucrose in 0.1M Sorenson's phosphate buffer, pH 7.4 for 24-96 hr. at 4° C. The tissue was frozen, sectioned at 20 μm in a cryostat, thaw mounted onto gelatin coated slides, and dried for 1 hr. at 37° C. […]

[5] = test system: GT-IR fibers in the paw skin; assay: Glutaminase immunohistochemistry of hindpaw skin after CFA inflammation; assay type: in vivo, rat; conditions: CFA + inhibitor, skin after 7 days; control very little, CFA+saline many intense fibers
Protocol: as §2, §3

[6] = test system: hindpaw of normal rats; assay: DON controls: pressure and thermal sensitivities after intraplantar injection in normal rats; assay type: in vivo, rat; conditions: DON 10 μMole/25 μl injected on day 3, no inflammation
Protocol: FIG. 10 illustrates DON controls.
Two to three days prior to and for the days following CFA injection, rats were tested for pressure sensitivity with von Frey hairs (Semmes-Weinstein monofilaments; Stoelting, Inc.). Rats were allowed to acclimate for five to ten minutes in a plastic box (25×25×25 cm) with 6 mm holes spaced every 6 mm [Pitcher et al, 1999a,b]. Monofilaments calibrated for specific forces were inserted through the holes underneath the box to probe the plantar surface of the hindpaw, 5 times in 3-4 sec intervals in different places on the plantar surface. Filaments with light force were used first, followed by filaments of increasing force. A filament was slowly applied perpendicularly to the plantar surface until bending of the filament occurred. […] The threshold force was defined as the filament (force) that caused the foot retraction without bending the monofilament three out of five times. […]
Thermal latencies for the footpad plantar surface were determined with the Hargreaves' model (Ugo Basile, Italy). […] Radiant heat was applied to the plantar surface of the hindpaw and the withdrawal latency recorded. […] Differences between groups for pressure thresholds and thermal latencies were determined with a Student's t test (p<0.05 for significance) using InStat biological statistics program (GraphPad Software, Inc., San Diego).

[7] = BB 200 μM/25 μl at day three following CFA inflammation
[8] = P-CoA 2 mM/25 μl at day three following CFA inflammation
[9] = NEM 10 mM/25 μl at day three following CFA inflammation

O=c1oc2ccccc2c(O)c1Cc1c(O)c2ccccc2oc1=O [DC, dicoumarol]
pressure responses (allodynia) as inflammation progressed ([1]; dicoumarol 15 μl @ 500 μM i.t. on days 0, 1 and 2, CFA at Day 0, data not shown): less hyperalgesic and allodynic | Thermal latencies (hyperalgesia) as inflammation progressed ([2]; dicoumarol 15 μl @ 500 μM i.t. on days 0, 1 and 2, CFA at Day 0): less hyperalgesic

Cc1c(C2(c3cc(C(C)C)c(O)c(Br)c3C)OS(=O)(=O)c3ccccc32)cc(C(C)C)c(O)c1Br [BB, bromothymol blue]
long term pain relief to pressure (mechanical stimulation) [3, 7]: pain relief on Day 5 | long term pain relief to heat (thermal stimulation) [2, 7]: pain relief from Days 5-7 and at near normal levels from Days 6 and 7

O=C(O)CF [FA, fluoroacetate]
pressure responses after intrathecal inhibitor [1]: near normal pressure responses for several days

CCCCCCCCCCCCCCCC(=O)SCCNC(=O)CCNC(=O)[C@H](O)C(C)(C)COP(=O)(O)OP(=O)(O)OC[C@H]1O[C@@H](n2cnc3c(N)ncnc32)[C@H](O)[C@@H]1OP(=O)(O)O [P-CoA, Palmitoyl Coenzyme A]
long term pain relief to pressure (mechanical stimulation) [3, 8]: pain relief from Days 4-7 | long term pain relief to heat (thermal stimulation) [2, 8]: pain relief to near normal levels from Days 4-7

[N-]=[N+]=CC(=O)CC[C@H](N)C(=O)O [DON, 6-diazo-5-oxo-L-norleucine]
pressure responses after intrathecal inhibitor [1]: near normal pressure responses for several days | Paw pressure withdrawal thresholds (PPWT) ([3]; CFA+DON rats, 25 μl into right paw after 2-3 days, from 6 hours through the duration of the experiment): 20 to 30 g | dose response for pain relief from pressure, area under the curve Day 3 to Day 5 ([3]; DON 0.1-10 μMole/25 μl): No differences in the amount of pain relief | long term pain relief to pressure (mechanical stimulation) ([3]; DON 0.1-10 μMole/25 μl, three doses, at day three following CFA inflammation): pain relief occurred for several days | GLU-IR fibers in hindpaw skin [4]: reduced to near normal levels; also recorded: moderate numbers | GT-IR fibers in hindpaw skin [5]: moderate numbers | dose response for pain relief from thermal stimulation, area under the curve Day 3 to Day 5 ([2]; DON 0.1-10 μMole/25 μl): most efficacious at the higher doses | long term pain relief to heat (thermal stimulation) ([2]; DON 0.1-10 μMole/25 μl, all three doses, at day 3 after CFA inflammation): pain relief occurred for several days | pain relief to heat (thermal responses) ([2]; DON 0.1 and 1 μMole at day 3 after CFA inflammation): pain relief to near normal levels for at least one day | pain relief to heat (thermal responses) ([2]; DON 10 μMole at day 3 after CFA inflammation): bringing thermal responses back to normal for two days | pressure sensitivity in normal rats [6]: same as saline controls | thermal sensitivity in normal rats [6]: same as saline controls

CS(=N)(=O)CC[C@H](N)C(=O)O (stereo partly drawn) [MSO, methionine sulfoximine]
pressure responses after intrathecal inhibitor [1]: near normal pressure responses for several days | pressure responses ([3]; MSO injected into inflamed hindpaw at Day 3, one-time, over several days, before inflammation ~70 gms, after ~10 gms): ~50 gms | Thermal responses ([2]; MSO injected into inflamed hindpaw at Day 3, one-time, before inflammation ~9 sec, after ~3 sec): near normal levels by day 6 through day 9

CCN1C(=O)C=CC1=O [NEM, N-ethylmaleimide]
Paw pressure withdrawal thresholds (PPWT) ([3]; CFA+NEM rats, after 48 hours): 20 to 25 g | long term pain relief to pressure (mechanical stimulation) [3, 9]: pain relief occurred for several days | GLU-IR fibers in hindpaw skin [4]: reduced to near normal levels; also recorded: moderate numbers | GT-IR fibers in hindpaw skin [5]: moderate numbers | long term pain relief to heat (thermal stimulation) [2, 9]: pain relief occurred to near normal levels at days four and six
